Patent US11498928B2, “Macrocyclic spiroethers as Mcl-1 inhibitors” (ASCENTAGE PHARMA (SUZHOU) CO., LTD., priority 2019, dated 2022)
Read-outs that look alike come from different tables or passages of the source.

How the values were obtained:
[1] = target: T1, Mcl-1 protein (residues 171-323) (Homo sapiens, UniProt Q07820); experiment: Inhibition of Mcl-1 by fluorescence polarization (FP) competitive binding assay with FAM-Bid tracer; conditions: 2 nM FAM-Bid, 20 nM Mcl-1, 30 min
T1 construct: Tag-free Mcl-1 protein (residues 171-323) was used in the FP assay
T1 sequence (Q07820 171-323): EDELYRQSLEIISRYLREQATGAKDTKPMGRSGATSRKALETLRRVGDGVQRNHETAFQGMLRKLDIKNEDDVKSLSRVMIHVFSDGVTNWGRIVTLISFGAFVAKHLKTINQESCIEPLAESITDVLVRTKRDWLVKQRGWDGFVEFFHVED
How it was run: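 Ten-point compound titrations compete against 2 nM fluorescein-Bid for 20 nM Mcl-1 (171-323, untagged). Incubation 30 min RT in PBS buffer with BGG and Triton, 5% DMSO final. mP reduction fitted by sigmoidal nonlinear regression for IC50.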

[2] = test system: OPM-2 cells; experiment: Cell viability assay (OPM-2 cells), CCK-8; type: cell-based; conditions: 5% FBS
How it was run: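 Viability read by CCK-8 absorbance (450 nm, 4 h reagent incubation) after 24 h compound exposure of 20000 OPM-2 cells per well at 37 °C. IC50 fitted by nonlinear regression on vehicle-normalized signal.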

[3] = test system: NCI-H929 cells; experiment: Cell viability assay (NCI-H929 cells), CCK-8; type: cell-based; conditions: 5% FBS
How it was run: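 Viability of NCI-H929 cells was measured using the Cell Counting Kit-8. After 24 hrs of compound exposure, 10 μL of CCK-8 solution per well was incubated for 1-4 hours, and absorbance was read at 450 nm on a BioTek Synergy 1MF. Readings were normalized to vehicle (DMSO) cells, and IC50 values were derived by nonlinear regression in GraphPad Prism 6.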

[4] = Pharmacokinetic studies in mice (IV and PO); type: in vivo; conditions: for MRT last: read-out: MRT0-last
Description: Administration: Mice in the IV group was dosed at 2 mg/kg (20% PEG 400+10% Cremophor EL+70% PBS 7.4) via tail vein injection (N=9). Mice in the PO group was dosed at 10 mg/kg (20% PEG 400+10% Cremophor EL+70% PBS 7.4) via oral gavage (N=9). All the mice were fasted overnight before dosing and had free access to food 4 hr post dosing.
Sampling: The animal was restrained manually at the designated time points (0.083, 0.25, 0.5, 1, 2, 4, 6, 8 and 24 hr), approximately 110 μL of blood sample was collected via retro-orbital puncture or cardiac puncture for terminal bleeding under the anesthesia with Isoflurane inhalation into K2EDTA tubes. The blood samples were maintained in wet ice first and centrifuged to obtain plasma (2000 g, 4° C., 5 min) within 15 minutes post sampling. All the plasma samples were stored at approximately −70° C. until analysis.

| SMILES | IC50 [1] | IC50 ([2]; Homo sapiens, OPM-2, 24 h) | IC50 ([3]; Homo sapiens, NCI-H929, 24 h) | further results |
| --- | --- | --- | --- | --- |
| CO[C@H]1C2=CC(C2)[C@H](C)[C@@H](C)S(=O)(=O)NC(=O)c2ccc3c(c2)N(C[C@@H]2CC[C@H]21)C[C@@]1(CCCc2cc(Cl)cc(F)c21)CO3 (single isomer, unassigned) [20 (isomer 1)] | 12 nM | 2690 nM | 2000 nM | F ([4]; PO 10 mg/kg vs IV 2 mg/kg): 60.2%; AUC(0-inf) ([4]; mouse, plasma, IV 2 mg/kg): 7500 ng·h/mL; AUC(0-t) ([4]; mouse, plasma, IV 2 mg/kg): 7350 ng·h/mL; clearance ([4]; mouse, plasma, IV 2 mg/kg): 4.45 mL/min/kg; half-life ([4]; mouse, plasma, IV 2 mg/kg): 6.7 h; Cmax ([4]; mouse, plasma, IV 2 mg/kg, read-out: C0/Cmax (C0)): 6090 ng/mL; MRT last ([4]; mouse, plasma, IV 2 mg/kg): 2.4 h; Vd ([4]; mouse, plasma, IV 2 mg/kg, read-out: Vss): 0.8 L/kg; AUC(0-inf) ([4]; mouse, plasma, PO 10 mg/kg): 22600 ng·h/mL; AUC(0-t) ([4]; mouse, plasma, PO 10 mg/kg): 22300 ng·h/mL; Tmax ([4]; mouse, plasma, PO 10 mg/kg): 1 h; half-life ([4]; mouse, plasma, PO 10 mg/kg): 4.9 h; Cmax ([4]; mouse, plasma, PO 10 mg/kg, read-out: C0/Cmax (Cmax)): 4860 ng/mL; MRT last ([4]; mouse, plasma, PO 10 mg/kg): 3.6 h; Vd/F ([4]; mouse, plasma, PO 10 mg/kg, read-out: Vz/F): 3.1 L/kg |
| CO[C@@]1(CN2CCN3CCOC[C@H]3C2)C2=C[C@@H](C2)[C@H](C)[C@@H](C)S(=O)(=O)NC(=O)c2ccc3c(c2)N(C[C@@H]2CC[C@H]21)C[C@@]1(CCCc2c1ccc(Cl)c2F)CO3 [compound 34, (1S,11′R,12′S,13′R,16′R,16a′R,18a′R,E)-6-chloro-5-fluoro-16′-(((R)-hexahydropyrazino[2,1-c][1,4]oxazin-8(1H)-yl)methyl)-16′-methoxy-11′,12′-dimethyl-3,4,12′,13′,16′,16a′,17′,18′,18a′,19′-decahydro-1′H,2H,3′H,11′H-spiro[naphthalene-1,2′-[5,7]etheno[13,15]methanocyclobuta[i][1,4]oxazepino[3,4-f][1]thia[2,7]diazacyclohexadecin]-8′(9′H)-one 10′,10′-dioxide] | 9.7 nM | 35 nM | 16 nM |  |
| CC[C@@H]1CS(=O)(=O)NC(=O)c2ccc3c(c2)N(C[C@@H]2CC[C@H]2[C@@H](OC)C2=CC1C2)C[C@@]1(CCCc2cc(Cl)ccc21)CO3 (single isomer, unassigned) [Cpd. No. 9 (Isomer 2)] | 3.9 nM |  |  | IC50 ([2]; 24 h): 260 nM; IC50 ([3]; 24 h): 210 nM |
| C[C@@H]1[C@@H](C)S(=O)(=O)NC(=O)c2ccc3c(c2)N(C[C@@H]2CC[C@H]2[C@@H](OCC(=O)N2CCCC2)C2=C[C@H]1C2)C[C@@]1(CCCc2c1ccc(Cl)c2F)CO3 [compound 68, (1S,11′R,12′S,13′R,16′R,16a′R,18a′R,E)-6-chloro-5-fluoro-11′,12′-dimethyl-16′-(2-oxo-2-(pyrrolidin-1-yl)ethoxy)-3,4,12′,13′,16′,16a′,17′,18′,18a′,19′-decahydro-1′H,2H,3′H, 11′H-spiro[naphthalene-1,2′-[5,7]etheno[13,15]methanocyclobuta[i][1,4]oxazepino[3,4-f][1]thia[2,7]diazacyclohexadecin]-8′(9′H)-one 10′,10′-dioxide] | 15 nM | 47 nM | 43 nM |  |
| C[C@@H]1[C@@H](C)S(=O)(=O)NC(=O)c2ccc3c(c2)N(C[C@@H]2CC[C@H]2[C@@H](OCCN2CCN(C)CC2=O)C2=C[C@H]1C2)C[C@@]1(CCCc2c1ccc(Cl)c2F)CO3 [compound 91, (1S,11′R,12′S,13′R,16′R,16a′R,18a′R)-6-chloro-5-fluoro-11′,12′-dimethyl-16′-(2-(4-methyl-2-oxopiperazin-1-yl)ethoxy)-3,4,12′,13′,16′,16a′,17′,18′,18a′,19′-decahydro-1′H,2H,3′H,11′H-spiro[naphthalene-1,2′-[5,7]etheno[13,15]methanocyclobuta[i][1,4]oxazepino[3,4-f][1]thia[2,7]diazacyclohexadecin]-8′(9′H)-one 10′,10′-dioxide] | 15 nM | 59 nM | 16 nM |  |
| CCO[C@@]1(CN2CCN3CCOC[C@@H]3C2)C2=C[C@@H](C2)[C@H](C)[C@@H](C)S(=O)(=O)NC(=O)c2ccc3c(c2)N(C[C@@H]2CC[C@H]21)C[C@@]1(CCCc2c1ccc(Cl)c2F)CO3 [compound 44, (1S,11′R,12′S,13′R,16′R,16a′R,18a′R,E)-6-chloro-16′-ethoxy-5-fluoro-16′-(((S)-hexahydropyrazino[2,1-c][1,4]oxazin-8(1H)-yl)methyl)-11′,12′-dimethyl-3,4,12,′13′,16′,16a′,17′,18′,18a′,19′-decahydro-1′H,2H,3′H,11′H-spiro[naphthalene-1,2′-[5,7]etheno[13,15]methanocyclobuta[i][1,4]oxazepino[3,4-f][1]thia[2,7]diazacyclohexadecin]-8′(9′H)-one 10′,10′-dioxide] | 11 nM | 48 nM | 17 nM |  |
| CCO[C@@]1(C(=O)N2CCN3CCOC[C@@H]3C2)C2=C[C@@H](C2)[C@H](C)[C@@H](C)S(=O)(=O)NC(=O)c2ccc3c(c2)N(C[C@@H]2CC[C@H]21)C[C@@]1(CCCc2c1ccc(Cl)c2F)CO3 [compound 46, (1S,11′R,12′S,13′R,16′R,16a′R,18a′R,E)-6-chloro-16′-ethoxy-5-fluoro-11′,12′-dimethyl-16′-((S)-octahydropyrazino[2,1-c][1,4]oxazine-8-carbonyl)-3,4,12′,13′,16′,16a′,17′,18′,18a′,19′-decahydro-1′H,2H,3′H,11′H-spiro[naphthalene-1,2′-[5,7]etheno[13,15]methanocyclobuta[i][1,4]oxazepino[3,4-f][1]thia[2,7]diazacyclohexadecin]-8′(9′H)-one 10′,10′-dioxide] | 13 nM | 325 nM | 200 nM |  |
| CO[C@@]1(CN2CCN3CCCC[C@H]3C2)C2=C[C@@H](C2)[C@H](C)[C@@H](C)S(=O)(=O)NC(=O)c2ccc3c(c2)N(C[C@@H]2CC[C@H]21)C[C@@]1(CCCc2c1ccc(Cl)c2F)CO3 [compound 32, (1S,11′R,12′S,13′R,16′R,16a′R,18a′R,E)-6-chloro-5-fluoro-16′-methoxy-11′,12′-dimethyl-16′-(((S)-octahydro-2H-pyrido[1,2-a]pyrazin-2-yl)methyl)-3,4,12′,13′,16′,16a′,17′,18′,18a′,19′-decahydro-1′H,2H,3′H,11′H-spiro[naphthalene-1,2′-[5,7]etheno[13,15]methanocyclobuta[i][1,4]oxazepino[3,4-f][1]thia[2,7]diazacyclohexadecin]-8′(9′H)-one 10′,10′-dioxide] | 13 nM | 29 nM | 10 nM |  |
| CO[C@@H]1C2=CC(CCS(=O)(=O)NC(=O)c3ccc4c(c3)N(C[C@@H]3CC[C@H]31)C[C@@]1(CCCc3cc(Cl)ccc31)CO4)C2 (single isomer, unassigned) [Cpd. No. 4 (Isomer 1)] | 8.3 nM |  |  | IC50 ([2]; 24 h): 5720 nM; IC50 ([3]; 24 h): 4200 nM |
| CO[C@H]1C2=CC(C2)CC(C)S(=O)(=O)NC(=O)c2ccc3c(c2)N(C[C@@H]2CC[C@H]21)C[C@@]1(CCCc2cc(Cl)ccc21)CO3 (mixture of isomers) [11 (mixture)] | 5.5 nM | 967 nM | 270 nM |  |
| CO[C@@H]1C2CC(C2)[C@H](C)N(C)S(=O)(=O)NC(=O)c2ccc3c(c2)N(C[C@@H]2CC[C@H]21)C[C@@]1(CCCc2cc(Cl)ccc21)CO3 [Cpd. No. 29, (1S,12′S,16′R,16a′R,18a′R)-6-chloro-16′-methoxy-11′,12′-dimethyl-3,4,12′,13′,14′,15′,16′,16a′,17′,18′,18a′,19′-dodecahydro-1′H,2H,3′H,11′H-spiro[naphthalene-1,2′-[5,7]etheno[13,15]methanocyclobuta[i][1,4]oxazepino[3,4-f][1]thia[2,7,16]triazacyclohexadecin]-8′(9′H)-one 10′,10′-dioxide] | 16 nM | 5210 nM | 5500 nM |  |
| CO[C@H]1C2=C[C@H](C2)[C@H](C)[C@@H](C)S(=O)(=O)NC(=O)c2ccc3c(c2)N(C[C@@H]2CC[C@H]21)C[C@@]1(CCCc2cc(Cl)ccc21)CO3 (single isomer, unassigned) [Cpd. No. 15 (isomer 2)] | 6.5 nM | 1000 nM | 230 nM |  |
| CNCCO[C@H]1C2=C[C@@H](C2)[C@H](C)[C@@H](C)S(=O)(=O)NC(=O)c2ccc3c(c2)N(C[C@@H]2CC[C@H]21)C[C@@]1(CCCc2c1ccc(Cl)c2F)CO3 [compound 78, (1S,11′R,12′S,13′R,16′R,16a′R,18a′R,E)-6-chloro-5-fluoro-11′,12′-dimethyl-16′-(2-(methylamino)ethoxy)-3,4,12′,13′,16′,16a′,17′,18′,18a′,19′-decahydro-1′H,2H,3′H, 11′H-spiro[naphthalene-1,2′-[5,7]etheno[13,15]methanocyclobuta[i][1,4]oxazepino[3,4-f][1]thia[2,7]diazacyclohexadecin]-8′(9′H)-one 10′,10′-dioxide] | 16 nM | 184 nM | 66 nM |  |
